# Laboratory results reported in PubChem BioAssay (NCI).
#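 Briefly, cells in 96-well plates were exposed to five compound concentrations for 48 h, and endpoints were estimated by linear interpolation. GI50: concentration for 50% inhibition of growth. TGI: concentration producing complete growth inhibition.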
# How the values were obtained:
# Assay in all cases: NCI-60 cell line screen, 48 h
# 786-0 renal = tested on: 786-0 renal
# A498 renal = tested on: A498 renal
# A549 NSCLC = tested on: A549 NSCLC
# ACHN renal = tested on: ACHN renal
# BT-549 breast = tested on: BT-549 breast
# CAKI-1 renal = tested on: CAKI-1 renal
# CCRF-CEM leukemia = tested on: CCRF-CEM leukemia
# COLO 205 colon = tested on: COLO 205 colon
# DU-145 prostate = tested on: DU-145 prostate
# EKVX NSCLC = tested on: EKVX NSCLC
# HCC-2998 colon = tested on: HCC-2998 colon
# HCT-116 colon = tested on: HCT-116 colon
# HCT-15 colon = tested on: HCT-15 colon
# HL-60(TB) leukemia = tested on: HL-60(TB) leukemia
# HOP-62 NSCLC = tested on: HOP-62 NSCLC
# HOP-92 NSCLC = tested on: HOP-92 NSCLC
# HS 578T breast = tested on: HS 578T breast
# HT29 colon = tested on: HT29 colon
# IGROV1 ovarian = tested on: IGROV1 ovarian
# K-562 leukemia = tested on: K-562 leukemia
# KM12 colon = tested on: KM12 colon
# LOX IMVI melanoma = tested on: LOX IMVI melanoma
# M14 melanoma = tested on: M14 melanoma
# MALME-3M melanoma = tested on: MALME-3M melanoma
# MCF7 breast = tested on: MCF7 breast
# MDA-MB-231 breast = tested on: MDA-MB-231 breast
# MDA-MB-435 = tested on: MDA-MB-435
# MOLT-4 leukemia = tested on: MOLT-4 leukemia
# NCI-H226 lung = tested on: NCI-H226 lung
# NCI-H23 lung = tested on: NCI-H23 lung
# NCI-H460 lung = tested on: NCI-H460 lung
# NCI-H522 lung = tested on: NCI-H522 lung
# NCI/ADR-RES ovarian = tested on: NCI/ADR-RES ovarian
# OVCAR-3 ovarian = tested on: OVCAR-3 ovarian
# OVCAR-4 ovarian = tested on: OVCAR-4 ovarian
# OVCAR-5 ovarian = tested on: OVCAR-5 ovarian
# OVCAR-8 ovarian = tested on: OVCAR-8 ovarian
# PC-3 prostate = tested on: PC-3 prostate
# RPMI-8226 leukemia = tested on: RPMI-8226 leukemia
# RXF 393 renal = tested on: RXF 393 renal
# SF-268 CNS = tested on: SF-268 CNS
# SF-295 CNS = tested on: SF-295 CNS
# SF-539 CNS = tested on: SF-539 CNS
# SK-MEL-2 melanoma = tested on: SK-MEL-2 melanoma
# SK-MEL-28 melanoma = tested on: SK-MEL-28 melanoma
# SK-MEL-5 melanoma = tested on: SK-MEL-5 melanoma
# SK-OV-3 ovarian = tested on: SK-OV-3 ovarian
# SN12C renal = tested on: SN12C renal
# SNB-19 CNS = tested on: SNB-19 CNS
# SNB-75 CNS = tested on: SNB-75 CNS
# SR leukemia = tested on: SR leukemia
# SW-620 colon = tested on: SW-620 colon
# T-47D breast = tested on: T-47D breast
# TK-10 renal = tested on: TK-10 renal
# U251 CNS = tested on: U251 CNS
# UACC-257 melanoma = tested on: UACC-257 melanoma
# UACC-62 melanoma = tested on: UACC-62 melanoma
# UO-31 renal = tested on: UO-31 renal
smiles,measurement,setting,value
C=CCNCCN1C(=O)c2ccc3c4c(ccc(c24)C1=O)C(=O)N(CCNCC=C)C3=O,GI50,786-0 renal,1.11 µM
same,TGI,786-0 renal,2.8 µM
same,GI50,A498 renal,1.14 µM
same,TGI,A498 renal,3.57 µM
same,GI50,A549 NSCLC,0.418 µM
same,TGI,A549 NSCLC,1.67 µM
same,GI50,ACHN renal,0.407 µM
same,TGI,ACHN renal,2.52 µM
same,GI50,BT-549 breast,2.91 µM
same,TGI,BT-549 breast,10.2 µM
same,GI50,CAKI-1 renal,0.63 µM
same,TGI,CAKI-1 renal,1.84 µM
same,GI50,CCRF-CEM leukemia,0.708 µM
same,TGI,CCRF-CEM leukemia,3.44 µM
same,GI50,COLO 205 colon,0.16 µM
same,TGI,COLO 205 colon,0.407 µM
same,GI50,DU-145 prostate,0.663 µM
same,TGI,DU-145 prostate,1.36 µM
same,GI50,EKVX NSCLC,0.557 µM
same,TGI,EKVX NSCLC,1.51 µM
same,GI50,HCC-2998 colon,0.766 µM
same,TGI,HCC-2998 colon,1.55 µM
same,GI50,HCT-116 colon,0.5 µM
same,TGI,HCT-116 colon,50 µM
same,GI50,HCT-15 colon,0.457 µM
same,TGI,HCT-15 colon,1.66 µM
same,GI50,HL-60(TB) leukemia,0.86 µM
same,TGI,HL-60(TB) leukemia,2.21 µM
same,GI50,HOP-62 NSCLC,0.712 µM
same,TGI,HOP-62 NSCLC,2.7 µM
same,GI50,HOP-92 NSCLC,1.81 µM
same,TGI,HOP-92 NSCLC,5.56 µM
same,GI50,HS 578T breast,1.76 µM
same,TGI,HS 578T breast,8.71 µM
same,GI50,HT29 colon,0.193 µM
same,TGI,HT29 colon,0.769 µM
same,GI50,IGROV1 ovarian,0.504 µM
same,TGI,IGROV1 ovarian,1.67 µM
same,GI50,K-562 leukemia,0.534 µM
same,TGI,K-562 leukemia,3.24 µM
same,GI50,KM12 colon,0.59 µM
same,TGI,KM12 colon,1.82 µM
same,GI50,LOX IMVI melanoma,0.728 µM
same,TGI,LOX IMVI melanoma,1.77 µM
same,GI50,M14 melanoma,0.918 µM
same,TGI,M14 melanoma,1.8 µM
same,GI50,MALME-3M melanoma,0.343 µM
same,TGI,MALME-3M melanoma,0.996 µM
same,GI50,MCF7 breast,0.225 µM
same,TGI,MCF7 breast,0.983 µM
same,GI50,MDA-MB-231 breast,1.26 µM
same,TGI,MDA-MB-231 breast,4.71 µM
same,GI50,MDA-MB-435,0.745 µM
same,TGI,MDA-MB-435,1.7 µM
same,GI50,MOLT-4 leukemia,0.427 µM
same,TGI,MOLT-4 leukemia,1.63 µM
same,GI50,NCI-H226 lung,0.493 µM
same,TGI,NCI-H226 lung,1.46 µM
same,GI50,NCI-H23 lung,0.938 µM
same,TGI,NCI-H23 lung,2.1 µM
same,GI50,NCI-H460 lung,0.258 µM
same,TGI,NCI-H460 lung,1.73 µM
same,GI50,NCI-H522 lung,0.616 µM
same,TGI,NCI-H522 lung,1.54 µM
same,GI50,NCI/ADR-RES ovarian,0.995 µM
same,TGI,NCI/ADR-RES ovarian,5.29 µM
same,GI50,OVCAR-3 ovarian,0.99 µM
same,TGI,OVCAR-3 ovarian,3.27 µM
same,GI50,OVCAR-4 ovarian,0.315 µM
same,TGI,OVCAR-4 ovarian,1 µM
same,GI50,OVCAR-5 ovarian,1.04 µM
same,TGI,OVCAR-5 ovarian,3.09 µM
same,GI50,OVCAR-8 ovarian,0.421 µM
same,TGI,OVCAR-8 ovarian,4 µM
same,GI50,PC-3 prostate,1.34 µM
same,TGI,PC-3 prostate,16.6 µM
same,GI50,RPMI-8226 leukemia,0.953 µM
same,TGI,RPMI-8226 leukemia,4.23 µM
same,GI50,RXF 393 renal,0.696 µM
same,TGI,RXF 393 renal,1.48 µM
same,GI50,SF-268 CNS,0.753 µM
same,TGI,SF-268 CNS,3.54 µM
same,GI50,SF-295 CNS,0.397 µM
same,TGI,SF-295 CNS,1.28 µM
same,GI50,SF-539 CNS,0.847 µM
same,TGI,SF-539 CNS,1.96 µM
same,GI50,SK-MEL-2 melanoma,0.891 µM
same,TGI,SK-MEL-2 melanoma,1.74 µM
same,GI50,SK-MEL-28 melanoma,1.18 µM
same,TGI,SK-MEL-28 melanoma,2.68 µM
same,GI50,SK-MEL-5 melanoma,0.584 µM
same,TGI,SK-MEL-5 melanoma,1.2 µM
same,GI50,SK-OV-3 ovarian,1.05 µM
same,TGI,SK-OV-3 ovarian,2.8 µM
same,GI50,SN12C renal,0.489 µM
same,TGI,SN12C renal,1.26 µM
same,GI50,SNB-19 CNS,0.65 µM
same,TGI,SNB-19 CNS,1.35 µM
same,GI50,SNB-75 CNS,0.874 µM
same,TGI,SNB-75 CNS,1.67 µM
same,GI50,SR leukemia,0.811 µM
same,TGI,SR leukemia,2.92 µM
same,GI50,SW-620 colon,0.402 µM
same,TGI,SW-620 colon,1.63 µM
same,GI50,T-47D breast,1.2 µM
same,TGI,T-47D breast,2.65 µM
same,GI50,TK-10 renal,1.11 µM
same,TGI,TK-10 renal,3.43 µM
same,GI50,U251 CNS,0.526 µM
same,TGI,U251 CNS,1.26 µM
same,GI50,UACC-257 melanoma,0.786 µM
same,TGI,UACC-257 melanoma,1.49 µM
same,GI50,UACC-62 melanoma,0.895 µM
same,TGI,UACC-62 melanoma,1.68 µM
same,GI50,UO-31 renal,0.716 µM
same,TGI,UO-31 renal,1.69 µM
